Consider four compounds from ChEMBL document CHEMBL2062440, “Isolation of spirastrellolides A and B from a marine sponge Epipolasis sp. and their cytotoxic activities” (J Nat Prod, 2012).

In this experiment the test system is HeLa. In words: Cytotoxicity against human HeLa cells after 72 hrs by MTT assay. In kind it is functional, cell-based. (Tetrazolium assays rely on reduction of a dye to a coloured formazan, in cell work by metabolically active cells.)

The IC50 is the point on the concentration scale where inhibition reaches its midpoint. A high value points to weaker potency in that assay. The compound `COC(=O)[C@H](O)C/C=C\C/C=C/C[C@@H]1O[C@@]23C[C@@H]1OC(=O)C[C@H]1CCC[C@@H](C[C@@H](O)C[C@H](O)C[C@H]4O[C@]5(C=C[C@@H]4C)CC[C@H](OC)[C@H](O5)[C@@H](O)[C@@H](O)[C@@H](C)CC[C@H]4O[C@@](CC[C@@H]2C)(C[C@@H](OC)[C@@H]4Cl)O3)O1` [SPIRASTRELLOLIDE A METHYL ESTER] displayed a half-inhibitory concentration (IC50) of 30 nM.

As to `CO[C@H]1CC[C@]23C=C[C@H](C)[C@@H](C[C@@H](O)C[C@H](O)C[C@@H]4CCC[C@H](CC(=O)O[C@H]5C[C@@]6(O[C@H]5C/C=C/C/C=C\C[C@@H](O)C(=O)O)O[C@]5(CC[C@@H]6C)C[C@@H](OC)[C@H](Cl)[C@@H](CC[C@H](C)[C@H](O)[C@H](O)[C@H]1O2)O5)O4)O3` [SPIRASTRELLOLIDE A], half-maximal inhibition (IC50) was put at 20 nM.

The compound `COC(=O)[C@H](O)C/C=C\C/C=C/C[C@@H]1O[C@@]23C[C@@H]1OC(=O)C[C@H]1CCC[C@@H](C[C@@H](O)C[C@H](O)C[C@H]4O[C@@]5(CC[C@H](OC)[C@H](O5)[C@@H](O)[C@@H](O)[C@@H](C)CC[C@@H]5C[C@H](OC)C[C@](CC[C@@H]2C)(O5)O3)CC[C@@H]4C)O1` [SPIRASTRELLOLIDE B METHYL ESTER] came in with a concentration for half-maximal inhibition (IC50) of 70 nM. Compared with the last compound, the IC50 is about 3.5-fold higher.

In turn, `CO[C@H]1C[C@H]2CC[C@H](C)[C@H](O)[C@H](O)[C@H]3O[C@]4(CC[C@@H]3OC)CC[C@H](C)[C@@H](C[C@@H](O)C[C@H](O)C[C@@H]3CCC[C@H](CC(=O)O[C@H]5C[C@@]6(O[C@H]5C/C=C/C/C=C\C[C@@H](O)C(=O)O)O[C@](CC[C@@H]6C)(C1)O2)O3)O4` [SPIRASTRELLOLIDE B] gave a half-maximal inhibitory concentration (IC50) of 40 nM.
